In patent US20230390345A1, “COMBINATION THERAPY COMPRISING HER-2-DC1 VACCINE, A PROBIOTIC, AND SEMAPHORIN” (H. LEE MOFFITT CANCER CENTER AND RESEARCH INSTITUTE, INC., priority 2020, published 2023):

Experiments:
4T1 = test: Therapies in TNBC model 4T1 (FIG. 8); format: in vivo, Balb/C mice; settings: 4T1 TNBC model
Experimental: (§1) Balb/C mice or C57BL/6 mice received tumor cells on day 0 followed by different treatments; two doses of Taxol given intraperitoneally (i.p.) once a week; CDK inhibitor, abemaciclib was administered by oral gavage till end point; Anti-PD-L1 was given i.p. twice a week until end point; DC1 vaccine was given intratumorally.

TUBO tumors = test: Monotherapies in HER2+ BC murine model (FIG. 8); format: in vivo, Balb/C mice; settings: monotherapy
Experimental: as §1

In the case of `CC(=O)O[C@H]1C(=O)[C@@]2(C)[C@H]([C@H](OC(=O)c3ccccc3)[C@]3(O)C[C@H](OC(=O)[C@H](O)[C@@H](NC(=O)c4ccccc4)c4ccccc4)C(C)=C1C3(C)C)[C@]1(OC(C)=O)CO[C@@H]1C[C@@H]2O` [taxol, paclitaxel], the tumor growth (4T1) was “no effect on tumor growth” and the tumor growth (TUBO tumors) was “modestly delayed tumor growth”.
